Key:
soybean = test: Test C pre-/postemergence herbicide test; assay type: in vivo, Glycine max; conditions: for Plant response rating (0 = no effect, 100 = complete control), Soybean: 62 g ai/ha; for Plant response rating (0 = no effect, 100 = complete control), Soybean / Plant response rating, Soybean: preemergence
How it was run: (§1)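 Pre/post spray; non-phytotoxic solvent + surfactant. Post-timing 1–4 leaves, 2–18 cm. Read-out: visual % control vs untreated, day 12–14, greenhouse.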

bermudagrass = test: Test C pre-/postemergence herbicide test; assay type: in vivo, Cynodon dactylon; conditions: for Plant response rating (0 = no effect, 100 = complete control), Bermudagrass: 62 g ai/ha; for Plant response rating (0 = no effect, 100 = complete control), Bermudagrass / Plant response rating, Bermudagrass: preemergence
How it was run: as §1

large crabgrass = test: Test C pre-/postemergence herbicide test; assay type: in vivo, Digitaria sanguinalis; conditions: for Plant response rating (0 = no effect, 100 = complete control), Crabgrass, Large: 62 g ai/ha; for Plant response rating (0 = no effect, 100 = complete control), Crabgrass, Large / Plant response rating, Crabgrass, Large: preemergence
How it was run: as §1

pigweed = test: Test C pre-/postemergence herbicide test; assay type: in vivo, Amaranthus retroflexus; conditions: for Plant response rating (0 = no effect, 100 = complete control), Pigweed: 62 g ai/ha; for Plant response rating (0 = no effect, 100 = complete control), Pigweed / Plant response rating, Pigweed: preemergence
How it was run: as §1

giant foxtail [1] = test: Test A pre-/postemergence herbicide test; assay type: in vivo, Setaria faberi; conditions: for Plant response rating, Foxtail, Giant: Postemergence; for Foxtail, Giant plant response rating: Preemergence
How it was run: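 Greenhouse injury scoring (0–100, complete control = 100) at approximately ten days follows simultaneous pre- and postemergence application. Soil received a directed spray after seeding; seedlings of 2–10 cm at the one- to two-leaf stage were sprayed to runoff.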

yellow nutsedge = test: Test C pre-/postemergence herbicide test; assay type: in vivo, Cyperus esculentus; conditions: for Plant response rating (0 = no effect, 100 = complete control), Nutsedge, Yellow: 62 g ai/ha; for Plant response rating (0 = no effect, 100 = complete control), Nutsedge, Yellow / Plant response rating, Nutsedge, Yellow: preemergence
How it was run: as §1

morningglory = test: Test C pre-/postemergence herbicide test; assay type: in vivo, Ipomoea coccinea; design: key to Plant response rating, Morningglory: 0 = no effect, 100 = complete control; conditions: for Plant response rating, Morningglory: visual, 12 to 14 days
How it was run: as §1

giant foxtail [2] = test: Test C pre-/postemergence herbicide test; assay type: in vivo, Setaria faberi; conditions: for Plant response rating (0 = no effect, 100 = complete control), Foxtail, Giant: 62 g ai/ha; for Plant response rating (0 = no effect, 100 = complete control), Foxtail, Giant / Plant response rating, Foxtail, Giant: preemergence
How it was run: as §1

kochia = test: Test C pre-/postemergence herbicide test; assay type: in vivo, Kochia scoparia; conditions: for Plant response rating (0 = no effect, 100 = complete control), Kochia: 62 g ai/ha; for Plant response rating (0 = no effect, 100 = complete control), Kochia / Plant response rating, Kochia: preemergence
How it was run: as §1

common ragweed = test: Test C pre-/postemergence herbicide test; assay type: in vivo, Ambrosia elatior; design: key to Plant response rating, Ragweed: 0 = no effect, 100 = complete control; conditions: for Plant response rating (0 = no effect, 100 = complete control), Ragweed: 62 g ai/ha; for Plant response rating (0 = no effect, 100 = complete control), Ragweed / Plant response rating, Ragweed: preemergence
How it was run: as §1

[3] = 125 g ai/ha, scale 0 (no effect) to 100 (complete control), visual, 12 to 14 days
[4] = 250 g ai/ha, scale 0 to 100 (0 no effect, 100 complete control), visual, 12 to 14 days
[5] = Preemergence, 500 g ai/ha, scale 0 to 100, 0 no effect, 100 complete control
[6] = 500 g ai/ha, 0 to 100 scale, 0 no effect, 100 complete control
[7] = 2000 g ai/ha, 0 to 100 scale, 0 no effect, 100 complete control
[8] = 500 g ai/ha, visual rating, 0 to 100 scale (0 no effect, 100 complete control)
[9] = 125 g ai/ha, scale 0 (no effect) to 100 (complete control), preemergence
[10] = 250 g ai/ha, scale 0 to 100 (0 no effect, 100 complete control), preemergence

SMILES	Plant response rating (0 = no effect, 100 = complete control), Soybean (soybean)	Plant response rating, Soybean (soybean; [3])	Plant response rating, Soybean (soybean; [4])	Plant response rating (0 = no effect, 100 = complete control), Bermudagrass (bermudagrass)	Plant response rating, Bermudagrass (bermudagrass; [3])	Plant response rating, Bermudagrass (bermudagrass; [4])	Plant response rating (0 = no effect, 100 = complete control), Crabgrass, Large (large crabgrass)	Plant response rating, Crabgrass, Large (large crabgrass; [3])	Plant response rating, Crabgrass, Large (large crabgrass; [4])	Plant response rating (0 = no effect, 100 = complete control), Pigweed (pigweed)	Plant response rating, Pigweed (pigweed; [3])	Plant response rating, Pigweed (pigweed; [4])	Plant response rating, Foxtail, Giant (giant foxtail [1]; [6])	Plant response rating, Foxtail, Giant (giant foxtail [1]; [7])	Foxtail, Giant plant response rating (giant foxtail [1]; [8])	Foxtail, Giant plant response rating (giant foxtail [1]; [7])	Plant response rating (0 = no effect, 100 = complete control), Nutsedge, Yellow (yellow nutsedge)	Plant response rating, Nutsedge, Yellow (yellow nutsedge; [3])	Plant response rating, Nutsedge, Yellow (yellow nutsedge; [4])	Plant response rating, Morningglory (morningglory; [9])	other results
CCn1nc(C(C)(C)C)cc1C(=O)Nc1cccc(C(=O)NCC(C)C)c1 [Compound 61]	0	0	0	10	70	80	50	75	100	0	95	95	20	85	20	75	0	0	10	0	Soybean plant response rating (soybean; [5]): 10; Bermudagrass plant response rating (bermudagrass; [5]): 95; Crabgrass, Large plant response rating (large crabgrass; [5]): 100; Pigweed plant response rating (pigweed; [5]): 95; Nutsedge, Yellow plant response rating (yellow nutsedge; [5]): 30; Plant response rating (0 = no effect, 100 = complete control), Morningglory (morningglory; 62 g ai/ha, preemergence): 0; Plant response rating, Morningglory (morningglory; [10]): 5; Morningglory plant response rating (morningglory; [5]): 100; Plant response rating (0 = no effect, 100 = complete control), Foxtail, Giant (giant foxtail [2]): 0; Plant response rating, Foxtail, Giant (giant foxtail [2]; [3]): 20; Plant response rating, Foxtail, Giant (giant foxtail [2]; [4]): 40; Foxtail, Giant plant response rating (giant foxtail [2]; [5]): 60; Plant response rating (0 = no effect, 100 = complete control), Kochia (kochia): 10; Plant response rating, Kochia (kochia; [3]): 100; Plant response rating, Kochia (kochia; [4]): 100; Kochia plant response rating (kochia; [5]): 100; Plant response rating (0 = no effect, 100 = complete control), Ragweed (common ragweed): 0; Plant response rating, Ragweed (common ragweed; [3]): 0; Plant response rating, Ragweed (common ragweed; [4]): 80; Ragweed plant response rating (common ragweed; [5]): 80
CCn1nc(C(C)(C)C)cc1C(=O)Nc1cccc(C(=O)NCC2CC2)c1 [Compound 62]	0	0	30	10	90	95	40	90	90	95	95	95	55	85	75	100	0	10	40	0	Plant response rating, Soybean (soybean; 31 g ai/ha, scale 0 to 100): 0; Plant response rating, Bermudagrass (bermudagrass; 31 g ai/ha, scale 0 to 100): 0; Plant response rating, Crabgrass, Large (large crabgrass; 31 g ai/ha, scale 0 to 100): 5; Plant response rating, Pigweed (pigweed; 31 g ai/ha, scale 0 to 100): 90; Plant response rating, Nutsedge, Yellow (yellow nutsedge; 31 g ai/ha, scale 0 to 100): 0; Plant response rating, Morningglory (morningglory; [10]): 10; Plant response rating, Foxtail, Giant (giant foxtail [2]; 31 g ai/ha, scale 0 to 100): 5; Plant response rating (0 = no effect, 100 = complete control), Foxtail, Giant (giant foxtail [2]): 15; Plant response rating, Foxtail, Giant (giant foxtail [2]; [3]): 65; Plant response rating, Foxtail, Giant (giant foxtail [2]; [4]): 85; Plant response rating, Kochia (kochia; 31 g ai/ha, scale 0 to 100): 100; Plant response rating (0 = no effect, 100 = complete control), Kochia (kochia): 100; Plant response rating, Kochia (kochia; [3]): 100; Plant response rating, Kochia (kochia; [4]): 100; Plant response rating, Ragweed (common ragweed; 31 g ai/ha, scale 0 to 100): 0; Plant response rating (0 = no effect, 100 = complete control), Ragweed (common ragweed): 10; Plant response rating, Ragweed (common ragweed; [3]): 20; Plant response rating, Ragweed (common ragweed; [4]): 85

From patent publication US20060069132A1, “Azolecarboxamide herbicides” (priority 2004, published 2006)
